Where only a bound is given, the exact number is not on record here.

`CC(=O)OC(CBr)Cc1c(O)ccc2ncccc12` (stereo unspecified) displayed a melting point of 146 to 148 °C.
Then `O=C(NCN1CCN(c2ccccc2Cl)CC1)c1ccccc1`, with 145 to 147 °C; and `CCCCCCCCCCCCCCC(C)C(=O)O` (stereo unspecified), with 44 to 46 °C.
Then `O=C(Oc1cc[nH]c(=O)c1)c1ccc([N+](=O)[O-])cc1`, with 255 to 256 °C; and `CSC(=N)Nc1ccc(Cl)c(Cl)c1`, with 166 °C; and `COc1cccc2c1C=C(C(=O)O)C(C(F)(F)F)O2` (stereo unspecified), with 204 to 207 °C.
The figure for `O=C(O)CCCNCCC(=O)O` is 148 to 151 °C; for `CC1C2C(CON2C)CN1c1c(F)cc2c(=O)c(C(=O)O)cn(C3CC3)c2c1F` (stereo unspecified) it is 197 to 199 °C; for `COc1ccc(-c2cc(C)c3occc3c2)cc1` it is 82 to 83 °C.
In turn, `CCOc1cccc(CC(=O)O)c1OCCn1cc(C(=O)NCc2ccc(Cl)cc2Cl)c(OC(C)C)n1` came in with a melting point of 90 to 91 °C.
Then `CC(Oc1ccc(CNc2ccc(Cl)cc2)cc1)C(=O)O` (stereo unspecified), with 148 to 149 °C.
The figure for `Cc1c(Cl)nc2c(C=O)cnn2c1Cl` is 137 to 139 °C; for `CC1COCc2nc3c(N)nc4ccc(OCCN5CCOCC5)cc4c3n21` (stereo unspecified) it is 186 to 188 °C; for `CC(C)c1nc(CN(C)C(=O)NC(C(=O)NC(Cc2ccccc2)CC(O)C(Cc2ccccc2)NC(=O)OCc2cncs2)C(C)C)cs1` (stereo unspecified) it is 122 to 123 °C.
The figure for `CC(=O)c1nc2ccc(OCC(F)(F)C(F)(F)C(F)(F)C(F)F)cc2cc1O` is 69 to 71 °C; for `N#Cc1cccc(-c2cc(-c3ccccc3C(=O)O)on2)c1` it is 195 to 196 °C; for `Nc1c(I)c(C(F)(F)F)nn1-c1c(Cl)cc(C(F)(F)F)cc1Cl` it is 126 °C.
`N#Cc1ccc(OCCc2coc(-c3ccccc3)n2)cc1` came in with a melting point of 115 °C.
Then `Oc1nn(-c2ccccc2)cc1CCc1cscn1`, with 152 to 153 °C; and `COC(=O)C1C(c2ccc(F)c(C)c2)=CC2(CC1(C)C)SCCCS2` (stereo unspecified), with 100 to 101 °C.
Then `O=C(Nc1cc(Cl)cc2c(Cl)ccnc12)c1c(Cl)cccc1Cl`, with 201 to 205 °C; and `COc1ccc(/C=N/Nc2ccccc2C(=O)O)cc1OC1CCCC1`, with 174 to 176 °C; and `CCC(=O)C(Cc1ccc(O)cc1)C(=O)CC`, with 44 to 54 °C.
In turn, `NC(=O)/C=C1\CCc2c(F)cc(Cl)cc21` displayed a melting point of 171 to 173 °C.
Then `CC(C)(c1ccc(O)cc1)c1ccc(OC#N)cc1`, with 75 °C; and `COc1ccc(C)cc1NC(=O)Nc1ccc(N2CCN(C(=O)Nc3ccc(N(C)CCO)cc3C)CC2)cc1`, with 208 to 210 °C.
The figure for `CNCc1cccc2c1ccn2S(=O)(=O)c1ccccc1` is 75 to 77 °C; for `Nc1nccc(-c2c[nH]c3nccc(C#Cc4ccccc4)c23)n1` it is over 210 °C; for `CN(C)c1ccc(C2OC(=O)c3cc(N(C)C)ccc32)c(Cl)c1` (stereo unspecified) it is 159 to 160 °C.
Take `CCCc1c2c(c([N+](=O)[O-])c3c(=O)cc(C(=O)OCC)oc13)CC(C(=O)OCC)CC2` (stereo unspecified): the melting point is 164 to 166 °C.
The figure for `CCOC(=O)Cc1c(C(=O)O)c(C)c(C(=O)c2ccc(C)cc2)n1C` is 200 to 202 °C.
`OCCC1(c2ccc(Cl)c(Cl)c2)CCNC1` (stereo unspecified) came in with a melting point of 91 to 94 °C.
`CCOC(=O)Cc1nnc(-c2ccc(OC)cc2)n1-c1ccccc1`: the melting point is 130 to 131 °C.
Then `CCOc1nc(NCc2ccco2)nc(Nc2ccc(O)cc2)n1`, with 45 °C; and `Nc1nnc(CCCCCBr)s1`, with 128 to 130 °C.
For `CCCC1=C(C(=O)OCC)C(c2cc(F)ccc2F)c2c[nH]nc2N1` (stereo unspecified), the melting point lay within 168 to 169 °C.
The figure for `COc1cc(OC)nc(Oc2ccccc2C(=O)NS(=O)(=O)C(C)C)n1` is 128 to 130 °C; for `CC(C)(C)c1cc(C(C)(C)C)c2oc(N)c(-c3ccccc3)c2c1` it is 174 to 178 °C.
Then `CC(C)(C)NC(=O)N1CCN(Cc2ccccc2)C[C@@H]1C(=O)NCCc1cncn1Cc1ccc(C#N)cc1`, with 97.8 °C; and `Cc1ccc2cccc(OCc3c(Cl)ccc(S(=O)(=O)N(CCCCCCCC(=O)O)Cc4ccccc4)c3Cl)c2n1`, with 100 °C.
On to `CCN(CC)c1nsc(N)c1C#N`, for which the melting point lay within 87 to 88 °C.
Then `CCc1cc(NCc2ccc3oc(-c4ccccc4C#N)c(Br)c3c2)n2nccc2n1`, with 186 to 194 °C.
Then `CN(C)C1(c2ccccc2)CCC(=CC(=O)NCCCCCc2c[nH]c3ccccc23)CC1` (stereo unspecified), with 68 to 72 °C; and `CC(C)(C)OC(=O)N1CC(O)C(NS(=O)(=O)c2ccc(Oc3ccccc3)cc2)C1` (stereo unspecified), with 98 to 99 °C.
The figure for `CCOC(=O)/C=C/c1sc(SC)c2c1CCCC2=O` is 104 to 105 °C; for `COC(=O)NCC1CN(c2ccc(-n3cnc(Cn4cccn4)c3)c(F)c2)C(=O)O1` (stereo unspecified) it is 130 °C.
Take `C=CCOC(=O)c1ccc(COC(=O)c2cc(C(C)(C)C)c(O)c(C(C)(C)C)c2)cc1`: the melting point fell in the range of 100 to 101 °C.
Then `COc1ccc(-n2cnc3ccc(-c4nnc(NCc5cccc(F)c5)o4)cc32)cc1`, with 164 to 166 °C.
Then `Cc1cc(C#N)cc(C)c1OCCCC1=NNC(=O)CC1`, with 124 °C; and `c1c(NC23CC4CC(CC(C4)C2)C3)nc(N2CCNCC2)nc1NC12CC3CC(CC(C3)C1)C2`, with 210 to 220 °C.
Then `NC(=O)c1ccc(C=CC(=O)N2CCc3c([nH]c4ccccc34)C2c2ccc3c(c2)OCO3)cc1` (stereo unspecified), with 183 °C; and `O=c1oc(-c2cccc(-c3ccccc3)c2)cc(O)c1Sc1ccc2ccccc2c1`, with 183 to 185 °C; and `O=C(O)c1cc(-c2ccncn2)c[nH]c1=O`, with over 250 °C.
Regarding `CCOC(=O)C(C)c1ccc(O)c(NC(C)=O)c1` (stereo unspecified), the melting point lay within 137 to 141 °C.
The figure for `CCOC(=O)NC(=O)C(F)F` is 55 to 57 °C; for `N#CC1CCCc2c(C(=O)O)cccc21` (stereo unspecified) it is 177 to 179 °C.
The figure for `Cc1ccc2c(OS(=O)(=O)C(F)(F)F)cc(=O)oc2c1` is 95 to 96 °C; for `COc1ccc(C#N)cc1OC1COCC1OC` (stereo unspecified) it is 98 to 100 °C; for `CC(C)N1CCC(C(C(N)=O)(c2ccccc2)c2ccccc2)C1` (stereo unspecified) it is 110 to 112 °C.
Then `CCCCCCCS(=O)(=O)c1nn2c(=O)c(OC)cnc2s1`, with 106 to 109 °C; and `COC=C(C(=O)OC)N(C)c1cccc(-c2ccccc2)n1`, with 89 to 90 °C.
Consider `O=[N+]([O-])C=C(NCc1ccc(Cl)nc1)NCc1ccc(Cl)nc1`, for which the melting point lay in the range of 238 to 240 °C.
The figure for `COC(=O)Cc1ccccc1S(=O)(=O)NC(=O)Nc1nc(Cl)cc(Cl)n1` is 115 to 118 °C; for `O=C(Cc1ccc(Cl)c(Cl)c1)NCc1ccc2c(c1)CN(C1CCC(=O)NC1=O)C2=O` (stereo unspecified) it is 191 to 193 °C; for `Cc1ccc(Sc2ccc3c(c2)CC[C@H]2NC(=O)CC[C@]32C)cc1` it is 209 to 212 °C.
The figure for `CN1C(=O)C2C3CCC(C2C1=O)N1COc2ccccc2N=C31` (stereo unspecified) is 222 to 224 °C; for `Cc1cccc2c(=O)[nH]c(CCN3CC[C@H](O)C3)cc12` it is 176 to 178 °C.
Then `CCN(CC)CCOc1ccc2c3c(cccc13)C(=O)c1c-2oc2ccccc12`, with 115 to 118 °C.
With `C[C@H](NC(=O)[C@@H]1CCCN1CCC(=O)O)C(=O)N1CCC[C@H]1C(=O)O`, the melting point was 133 to 136 °C.
`CC1(C)CC(NC(=O)Nc2ccc(C(F)(F)F)cc2)CC(C)(C)C1=O` yielded a melting point of 152 to 153 °C.
Consider `COc1cc2c(=O)n(C)c(-c3ccc(OC4CCN(C5CCC5)CC4)cc3)nc2cn1`, for which the melting point lay in the range of 146 to 148 °C.
The figure for `COC(=O)C1=C(S(=O)(=O)NC(=O)Nc2nc(OC)nc(OC)n2)CCC1` is 168 to 169 °C; for `CCOCCCOc1ccc(-c2ccc3c(c2)C=C(C(=O)Nc2ccc(CN(C)C4CCOCC4)cc2)CCS3(=O)=O)cc1Cl` it is 182 to 183 °C; for `CC(=O)CC(=O)Nc1ccc(C(F)(F)F)cc1` it is 144 to 145 °C.
The figure for `O=C(O)C1(CSc2ccc3oc(-c4ccncc4)cc3c2)CCOCC1` is 227 °C.
The figure for `CC12CCC(=O)CC1CCC1C2CCC2(C)C(O)C(N=[N+]=[N-])CC12` (stereo unspecified) is 165 to 167 °C; for `Nc1ccn(C2OC(CO)C(O)C2O)c(=O)c1Br` (stereo unspecified) it is 202 to 204 °C; for `c1nnc2c3c(c(NCCCCN4CCCC4)nn12)CCCC3` it is 158 to 160 °C.
Compound `CCc1nc(C)c(C(=O)Nc2cc(Oc3ccc4nc(NC(=O)C5CC5)cn4n3)ccc2F)o1` displayed a melting point of 228 °C.
Then `Cc1nc(N2CCN(CCCc3ccccc3)C2=O)sc1C(=O)NCc1cccnc1`, with 127 to 128 °C; and `CCOC(=O)Cc1[nH]c(C(=O)c2ccccc2)c(C)c1C(=O)O`, with 183 to 185 °C; and `COc1ccc(C(=O)c2c(Cl)cc(Cl)cc2Cl)cc1Cc1ccc(=O)[nH]n1`, with 179 to 180 °C.
Consider `COc1ccc(SCn2cc(Cl)cnc2=O)cc1`, for which the melting point was 140 °C.
The figure for `O=[N+]([O-])c1ccc(Sc2ccc(O)c(Cl)c2Cl)cc1` is 204 °C.
The compound `N#CC1CN1C(=O)NC(=O)CCl` (stereo unspecified) returned a melting point of 152 to 155 °C.
The figure for `Cc1ccc(C(O[Si](C)(C)C(C)(C)C)C(N)=O)cc1` (stereo unspecified) is 108 to 110 °C.
The figure for `Cc1ccc(Cl)cc1N1CN(C(C)(C)C)CN(C)C1=S` is 130 to 132 °C; for `CCCCOc1ccc(-n2cc(C(=O)O)cn2)cc1C#N` it is 200 to 202 °C.
The figure for `CC(C)(C(=O)O)c1nc2ccc(NCCCN3CCN(C(c4ccccc4)c4ccccc4)CC3)nn2c1Cl` is 184 to 186 °C; for `CC(C)(C)NNC(=O)c1ccccc1` it is 94 to 95 °C.
`Cn1cc(-c2ccnnc2)ccc1=O` had a melting point of over 250 °C.

For orientation: melting point means the temperature of the solid-liquid transition.
